Assays:
[1] = tested on: aroA:CP4 EPSPS reporter gene expression; experiment: MS2 CP translational repression of CP4 EPSPS reporter, corn protoplast transient assay (ELISA); format: cell-based; settings: corn protoplasts
Protocol: Corn protoplasts are prepared from etiolated leaves of antiseptically grown seedlings. Six to eight grams of leaf tissue is harvested and put in the enzyme mix (1% cellulase, 0.1% macerozyme, 0.6 M mannitol, 10 mM MES (pH =5.7), 1 mM CaCl2, 1 mM MgCl2, and 0. 1% BSA) in 100×25 mm petri plates. The leaf digestion is done for 135 minutes, swirling on a shaker at 50 rpm at 26° C. under light (10-25 mico-einsteins) in a growth chamber (Percival Scientific Inc., Boone, Iowa). Protoplasts are screened through a 190 μm sterile tissue mesh into a petri plate. The protoplasts are spun down in a table top centrifuge at 800 rpm (˜200 g) for 8 minutes. The supernatant is removed carefully by pipetting. The protoplasts are resuspended in 10 mL per tube of the 0.6 M mannitol rinse. They are spun down a second time using the same conditions and re-suspended in 10 mL of the electroporation buffer (0.6 M mannitol, 4 mM MES, 1.0 mM β-mercaptoethanol, 25 mM KCL, pH =5.7) and put on ice. The number of protoplasts is determined by making counts on a hemacytometer and a final density of 4.5×10^6 per mL is obtained with the proper volume of electroporation buffer. For electroporation, 0.75 mL of protoplasts is added to each cuvette followed by the addition of plasmid DNA in a volume of 50 μL or less. Samples are electroporated at 125 […] and 260 volts using a Bio-Rad Gene Pulser Electroporater (Bio-Rad CA) and incubated in Murishige-Skoog medium (MS) +0.6 M mannitol in the light at 26° C. for 18-22 hours before analysis. Protoplasts are harvested by spinning down at 800-1000 rpm in a table top centrifuge and lysed by resuspending in 500 μL extraction buffer (IX phosphate buffered saline [PBS] (Roche Boehringer Mannheim #1666789, Nutley, N.J.) 0.2% BSA, 0.5% Tween 20, pH 7.4) and vortexed for five seconds. Samples are spun at 3,000 rpm for 5 min in a table top centrifuge and the supernatant is saved to a fresh tube and put on ice ready for analysis.
The total amount of DNA in each sample is equalized by using as a carrier an appropriate amount of an empty vector plasmid DNA pMON999 (P-CaMV.35S/T-AGRTU.nos). With the aroA:CP4 EPSPS gene as the reporter, the GUS activity encoded by a separate plasmid is used as an internal control to normalize the expression. Similarly, the aroA:CP4 EPSPS gene expression is used for normalization when the Ec.uidA (GUS) gene is used as the reporter.
The aroA:CP4 EPSPS expression is quantitated by ELISA. A crude protoplast extract containing lmg total protein is added to goat anti-CP4 EPSPS IgG coated wells of a 96-well microtiter plate for immunoreaction. Antibodies specific to CP4 EPSPS are produced in goats by immunization of three goats with recombinant SDS-PAGE purified CP4 EPSPS from recombinant E. coli. […]

[2] = tested on: GUS expression; experiment: MS2 translation repression system in transgenic Arabidopsis (F1 segregants of crosses); format: in vivo; settings: Arabidopsis plants containing the MS2 coat protein
Protocol: Arabidopsis plants are transformed by the Agrobacterium infiltration method as described (Bechtold et al., Methods Mol. Biol. 82:259-66 (1992)). DNA gel blots (Southern blot analysis), RNA gel blots (northern blot analysis) and protein immunoblots (western blot analysis) are carried out using standard protocols (Sambrook et al., Molecular Cloning: A laboratory manual, 2nd ed. Cold Spring Harbor Laboratory Press, Cold Spring Harbor, N.Y., (1989)).
V1 plants positive for GUS and MS2 coat protein are identified using a GUS assay (Jefferson et al., Plant Mol. Bio. Rep. 5:387-405 (1987)) and western blot analysis, respectively. Positive plants with a low copy number are identified by Southern analysis then cross pollinated. F1 plants from the cross are then subjected to PCR analysis to identify segregants that contained both transgenes as well as siblings that contained only the uidA gene. GUS expression levels are determined by MUG assays (Jefferson et al., Plant Mol. Bio. Rep. 5:387-405, (1987)) in both groups of plants for three separate crosses (25×1, 25×12, and 14×23).

[3] = tested on: CP4 EPSPS reporter gene expression; experiment: Yeast RPL32 translational repression of CP4 EPSPS reporter in corn protoplasts; format: cell-based; settings: CP4 EPSPS reporter with RPL32 operator
Protocol: (§1) Corn protoplasts are prepared from etiolated leaves of antiseptically grown seedlings. Six to eight grams of leaf tissue is harvested and put in the enzyme mix (1% cellulase, 0.1% macerozyme, 0.6 M mannitol, 10 mM MES (pH =5.7), 1 mM CaCl2, 1 mM MgCl2, and 0. 1% BSA) in 100×25 mm petri plates. The leaf digestion is done for 135 minutes, swirling on a shaker at 50 rpm at 26° C. under light (10-25 mico-einsteins) in a growth chamber (Percival Scientific Inc., Boone, Iowa). Protoplasts are screened through a 190 μm sterile tissue mesh into a petri plate. The protoplasts are spun down in a table top centrifuge at 800 rpm (˜200 g) for 8 minutes. The supernatant is removed carefully by pipetting. The protoplasts are resuspended in 10 mL per tube of the 0.6 M mannitol rinse. […] The number of protoplasts is determined by making counts on a hemacytometer and a final density of 4.5×10^6 per mL is obtained with the proper volume of electroporation buffer. […] Samples are spun at 3,000 rpm for 5 min in a table top centrifuge and the supernatant is saved to a fresh tube and put on ice ready for analysis.
For CP4 EPSPS ELISA assay, a 96-well Nunc-Immuno MaxiSorb plate is coated with 100 μL of purified monoclonal anti-CP4 EPSPS IgG antibody (1 ng/μL) in coating buffer (15 mM Na2CO3, 35 mM NaHCO3, pH 9.6). […] The plate is read on a Spectra Max 340 (Molecular Devices, Sunnyvail, Calif. 94089) at 450 nm. […]

[4] = tested on: Ec.uidA reporter gene with the MS2 operator in the 5′UTR; experiment: MS2 CP translational repression of Ec.uidA (GUS) reporter, corn protoplast transient assay; format: cell-based; settings: pMON42178/pMON42176 and pMON42180/pMON42177; corn protoplasts
Protocol: as §1, with “analysis. […]” for “analysis.”
A fluorometry assay for GUS activity is performed as described (Jefferson, Plant Mol. Bio. Rep. 5:387-405 (1987)). GUS activity is measured with the fluorometric substrate 4-methylumbelliferryl-β-glucuronide (4-MUG) on a Fmax fluorimeter (Molecular Devices Corp., Sunnyvale, Calif.). […]

[5] = 4:1 DNA molar ratio of the coat protein gene to the reporter
[6] = MS2 coat protein gene co-expressed

MS2 coat protein: coat protein of the MS2 RNA bacteriophage, RNA-binding translational repressor
expression of the aroA:CP4 EPSPS reporter gene, % of the control [1, 5]: 0.4%
fold repression of aroA:CP4 EPSPS reporter [1, 5]: 270 fold
expression of the aroA:CP4 EPSPS reporter gene, % of the control [1, 6]: 14%
fold repression of aroA:CP4 EPSPS reporter [1, 6]: about 7 fold
GUS activity, % of the control [2]: 6.9%
fold repression of GUS activity [2]: 14 fold

RPL32: yeast (Saccharomyces cerevisiae) ribosomal protein RPL32, an RNA-binding protein
fold reduction of translation [3]: up to 2.3 fold
translation, % of the control [3]: ≥ 43%

B1: MS2 CP:en: plant expression enhanced version of the MS2 CP gene (SEQ ID NO:3) (nucleic acid)
DNA: ATGGCCTCCAACTTCACCCAGTTCGTGCTCGTGGACAACGGCGGCACCGGCGACGTGACCGTCGCCCCAAGCAACTTCGCCAACGGGGTCGCCGAGTGGATCAGCTCCAACTCGCGCTCCCAGGCCTACAAGGTGACCTGCAGCGTGCGCCAGTCCTCCGCGCAGAACCGCAAGTACACCATCAAGGTCGAGGTGCCGAAGGTGGCCACCCAGACCGTCGGCGGCGTGGAGCTGCCAGTGGCCGCCTGGCGCTCGTACCTCAACATGGAGCTGACCATCCCAATCTTCGCCACGAACTCCGACTGCGAGCTGATCGTGAAGGCCATGCAAGGCCTCCTGAAGGACGGCAACCCGATCCCCTCCGCCATCGCCGCCAACTCCGGCATCTACTAA
modifications: synthetic plant MS2 CP gene
increase in efficiency of translational repression compared to the respective native gene construct, expressed as decrease in GUS activity [4]: 74-80%
